Data from paper PMC8838847, “Design, Synthesis and Cytotoxicity of Thiazole-Based Stilbene Analogs as Novel DNA Topoisomerase IB Inhibitors” (Molecules, 2022).

What was measured:
[1] = tested on: human breast cancer (MCF-7) cells; test: MTT cytotoxicity assay, MCF-7; format: cell-based; details: five doses 0.01-100 µM
Experimental: (§1) The cytotoxicity of the desired compounds was assessed through MTT assay against two human cancer cell lines, human breast cancer (MCF-7) and colon cancer (HCT116), and one normal cell line, human embryonic kidney 293T (HEK293T). CPT and etoposide (VP-16) were used as positive controls. The compounds were incubated with cells for 72 h in a five-dose assay ranging from 0.01 to 100 µΜ. After the drug treatments, MTT solution was added to test the percentage growth of tumor cells.
(§2) The cells were cultured on RPMI 1640 Medium at 37 °C in a humidified atmosphere with 5% CO2. The cytotoxicities of the target compounds were evaluated through MTT assay against two human cancer cell lines (human breast cancer MCF-7 and human colon cancer HCT116). For the compound treatment experiments, the cancer cells were treated with the compounds (pre-dissolved in DMSO) via a five-dose assay ranging from 10^−8 to 10^−4 M. After incubation for 72 h at 37 °C, MTT solution (20 μL, 2.5 mg/mL) in PBS (PBS without MTT as the blank) was added to each well of the culture plate. After incubation for 4 h, the formazan crystal formed in the well was dissolved in 100 μL of DMSO for an optical density of 570 nm. The IC50 value was calculated using nonlinear regression analysis (GraphPad Prism). Every experiment was conducted three times, independently.

[2] = tested on: human colon cancer (HCT116) cells; test: MTT cytotoxicity assay, HCT116; format: cell-based; details: five doses 0.01-100 µM
Experimental: as §1, §2

calf thymus Top1 = molecular target: T1, calf thymus Top1 (Bos taurus, UniProt F1MN93); test: Top1-mediated DNA relaxation assay; format: biochemical; details: compounds at 50 µM; semi-quantitative, relative to CPT at 50 µM
T1 construct: 1 unit of calf thymus Top1; from tissue; host or cells: calf thymus
T1 sequence (F1MN93 1-767): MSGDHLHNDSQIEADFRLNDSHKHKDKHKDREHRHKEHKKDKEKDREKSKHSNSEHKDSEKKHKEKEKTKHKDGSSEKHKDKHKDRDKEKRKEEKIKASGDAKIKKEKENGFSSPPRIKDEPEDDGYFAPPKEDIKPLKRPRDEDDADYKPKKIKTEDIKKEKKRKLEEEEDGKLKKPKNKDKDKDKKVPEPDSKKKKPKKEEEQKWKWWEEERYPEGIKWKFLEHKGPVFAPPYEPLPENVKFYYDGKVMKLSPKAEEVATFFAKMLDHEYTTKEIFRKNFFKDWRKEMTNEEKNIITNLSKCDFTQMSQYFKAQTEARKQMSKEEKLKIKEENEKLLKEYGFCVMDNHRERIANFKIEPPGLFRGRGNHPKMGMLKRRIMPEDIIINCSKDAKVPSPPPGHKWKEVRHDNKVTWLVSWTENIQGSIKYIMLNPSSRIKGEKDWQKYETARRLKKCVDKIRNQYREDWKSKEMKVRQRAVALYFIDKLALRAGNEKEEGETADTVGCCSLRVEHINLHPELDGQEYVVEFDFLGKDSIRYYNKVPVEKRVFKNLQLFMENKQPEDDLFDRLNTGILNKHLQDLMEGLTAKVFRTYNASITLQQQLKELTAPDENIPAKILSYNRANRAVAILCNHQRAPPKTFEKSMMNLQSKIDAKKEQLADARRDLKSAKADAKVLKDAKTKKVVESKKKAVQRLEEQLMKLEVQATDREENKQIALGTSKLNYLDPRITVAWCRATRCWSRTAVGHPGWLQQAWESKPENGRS
Experimental: The synthesized compounds 6–37 were evaluated for Top1 inhibitory activity by measurement of the Top1-mediated DNA relaxation assay. The compounds were tested at 50 µΜ using CPT as positive control, and the results were semi-quantitatively expressed relative to CPT at 50 µΜ as follows: ++++, more than 80% activity; +++, between 40% and 79% activity; ++, between 10% and 39% activity; +, less than 10% activity. […] In phenyl A, the 4-position halogen (X) remarkably affected the inhibition against Top1. […] In phenyl B, the introduction of substituents at the 3-position was beneficial for the Top1 inhibition, and the derivatives presented good tolerance of the 3-substituents, since compounds 8 (++++) and 13 (+++) with electron-donating -Me or -OMe and also compound 19 (+++) with electron-withdrawing -Br had good inhibition against Top1. For substituents at the 4-position, the strong electron-withdrawing -CF3 (10, +++) and -F (15, +++) increased the Top1 inhibitory activity compared to compound 6 (R = H), while the weak electron-withdrawing -Cl (17, +) and the electron-donating -Me (9, +) and -OMe (14, +) decreased the activity, with the exception of tert-Bu (11, +++).
As previously mentioned, compound 8 had the best inhibition activity against Top1, and therefore was selected for further investigation. A semi-quantitative Top1-mediated relaxation assay of compound 8 was performed at concentrations of 0.2, 1, 5, 25 and 125 μM.
The compounds were tested for their Top1 inhibitory activity using a Top1-mediated relaxation assay. Briefly, the reaction mixture (20 μL) with 0.5 μg of supercoiled pBR322 DNA in relaxation buffer (10 mM Tris-HCl, pH 7.5, 50 mM KCl, 5 mM MgCl2, 15 μg/mL BSA, 40 μg/mL DTT) was incubated with 1 unit of calf thymus Top1 in the absence or in the presence of the compound for 30 min at 37 °C. Then, the reaction solution was added with 6 × loading buffer (4 μL) and was analyzed using a 0.8% agarose gel in TBE buffer at 4.6 V/cm for 1.5 h. Gel was stained with 1 × GelRed for 30 min and subsequently visualized with a UV transilluminator.

Row | Compound | IC50 ([1]; Homo sapiens, MCF7, 72 h) [µM] | IC50 ([2]; Homo sapiens, HCT-116, 72 h) [µM] | melting point [°C] | Relaxation Assay (Top1 inhibitory activity) (calf thymus Top1) | IC50 ([1]; 72 h) [µM] | IC50 ([2]; 72 h) [µM]
1 | Fc1ccc(-c2csc(/C=C/c3ccccc3)n2)cc1 [Compound 6, (E)-4-(4-fluorophenyl)-2-styrylthiazole] | 22.2 ± 5.01 | 5.78 ± 1.89 | 129 to 130 | – | – | –
2 | Cc1ccccc1/C=C/c1nc(-c2ccc(F)cc2)cs1 [Compound 7, (E)-2-(2-methylstyryl)-4-(4-fluorophenyl)thiazole] | 31.4 ± 4.21 | 6.47 ± 0.62 | 74 to 75 | – | – | –
3 | Cc1ccc(/C=C/c2nc(-c3ccc(F)cc3)cs2)cc1 [Compound 9, (E)-2-(4-methylstyryl)-4-(4-fluorophenyl)thiazole] | 65.5 ± 3.11 | 21.9 ± 4.29 | 164 to 166 | + (less than 10% activity) | – | –
4 | Fc1ccc(-c2csc(/C=C/c3ccc(C(F)(F)F)cc3)n2)cc1 [Compound 10, (E)-2-(4-(trifluoromethyl)styryl)-4-(4-fluorophenyl)thiazole] | 17.3 ± 1.62 | 22.6 ± 2.41 | 111 to 113 | – | – | –
5 | COc1ccccc1/C=C/c1nc(-c2ccc(F)cc2)cs1 [Compound 12, (E)-2-(2-methoxystyryl)-4-(4-fluorophenyl)thiazole] | 49.5 ± 9.08 | 17.8 ± 1.16 | 73 to 74 | – | – | –
6 | COc1cccc(/C=C/c2nc(-c3ccc(F)cc3)cs2)c1 [Compound 13, (E)-2-(3-methoxystyryl)-4-(4-fluorophenyl)thiazole] | < 10 | < 5 | 115 to 116 | – | 9.85 ± 0.47 | 4.99 ± 0.8
7 | COc1ccc(/C=C/c2nc(-c3ccc(F)cc3)cs2)cc1 [Compound 14, (E)-2-(4-methoxystyryl)-4-(4-fluorophenyl)thiazole] | > 100 | > 100 | 124 to 125 | + (less than 10% activity) | – | –
8 | Fc1ccc(/C=C/c2nc(-c3ccc(F)cc3)cs2)cc1 [Compound 15, (E)-2-(4-fluorostyryl)-4-(4-fluorophenyl)thiazole] | – | 10.2 ± 1.07 | 147 to 149 | – | – | –
9 | Fc1ccc(-c2csc(/C=C/c3ccccc3Cl)n2)cc1 [Compound 16, (E)-2-(2-chlorostyryl)-4-(4-fluorophenyl)thiazole] | 15.2 ± 1.18 | 8.42 ± 1.1 | 97 to 98 | – | – | –
10 | Fc1ccc(-c2csc(/C=C/c3ccc(Cl)cc3)n2)cc1 [Compound 17, (E)-2-(4-chlorostyryl)-4-(4-fluorophenyl)thiazole] | 43.3 ± 1.42 | 27.1 ± 0.41 | 171 to 173 | + (less than 10% activity) | – | –
11 | Fc1ccc(-c2csc(/C=C/c3ccccc3Br)n2)cc1 [Compound 18, (E)-2-(2-bromostyryl)-4-(4-fluorophenyl)thiazole] | 20 ± 2.07 | 12.3 ± 1.1 | 94 to 95 | – | – | –
12 | Fc1ccc(-c2csc(/C=C/c3cccc(Br)c3)n2)cc1 [Compound 19, (E)-2-(3-bromostyryl)-4-(4-fluorophenyl)thiazole] | 11.5 ± 1.74 | 6.95 ± 0.33 | 142 to 144 | – | – | –
